Numbers after ± are expanded uncertainties.
Legend:
[1] = 298.15 K; 101.33 kPa; Liquid; Vibrating tube method
[2] = xn = mol fraction of the nth substance listed; conditions: 101 kPa, Liquid, Vibrating tube method

Cc1ccccc1C [1,2-dimethylbenzene]
Conditions | mass density [kg/m3]
[1] | 875.72 ± 0.13

Cc1cccc(C)c1 [1,3-dimethylbenzene]
Conditions | mass density [kg/m3]
[1] | 859.86 ± 0.13

Cc1ccc(C)cc1 [1,4-dimethylbenzene]
Conditions | mass density [kg/m3]
[1] | 856.67 ± 0.13

C[SiH]1O[SiH](C)O[SiH](C)O[SiH](C)O1 (stereo unspecified) [2,4,6,8-tetramethyl-1,3,5,7,2,4,6,8-tetroxatetrasilocane]
Conditions | mass density [kg/m3]
[1] | 992.39 ± 0.11

C[SiH]1O[SiH](C)O[SiH](C)O[SiH](C)O1 (stereo unspecified) [2,4,6,8-tetramethyl-1,3,5,7,2,4,6,8-tetroxatetrasilocane] + Cc1ccc(C)cc1
mass density [kg/m3], [2]
Conditions | 288.15 K | 298.15 K | 308.15 K
x1 = 0.0499 | 879.33 ± 0.13 | 870.42 ± 0.14 | 861.48 ± 0.14
x1 = 0.0999 | 892.03 ± 0.13 | 882.82 ± 0.13 | 873.61 ± 0.13
x1 = 0.1501 | 903.51 ± 0.13 | 893.96 ± 0.13 | 884.48 ± 0.13
x1 = 0.1999 | 913.85 ± 0.12 | 904.11 ± 0.13 | 894.33 ± 0.13
x1 = 0.25 | 923.25 ± 0.12 | 913.34 ± 0.12 | 903.35 ± 0.13
x1 = 0.2999 | 931.83 ± 0.12 | 921.7 ± 0.12 | 911.4 ± 0.12
x1 = 0.3501 | 939.62 ± 0.12 | 929.23 ± 0.12 | 918.8 ± 0.12
x1 = 0.4 | 946.73 ± 0.12 | 936.18 ± 0.12 | 925.53 ± 0.12
x1 = 0.4502 | 953.29 ± 0.12 | 942.54 ± 0.12 | 931.67 ± 0.12
x1 = 0.4997 | 959.21 ± 0.11 | 948.26 ± 0.12 | 937.19 ± 0.12
x1 = 0.5493 | 964.63 ± 0.11 | 953.54 ± 0.11 | 942.24 ± 0.12
x1 = 0.6001 | 969.79 ± 0.11 | 958.45 ± 0.11 | 947.03 ± 0.12
x1 = 0.6501 | 974.4 ± 0.11 | 962.93 ± 0.11 | 951.37 ± 0.11
x1 = 0.7002 | 978.67 ± 0.11 | 967.02 ± 0.11 | 955.31 ± 0.11
x1 = 0.7472 | 982.39 ± 0.11 | 970.62 ± 0.11 | 958.76 ± 0.11
x1 = 0.7998 | 986.27 ± 0.11 | 974.32 ± 0.11 | 962.3 ± 0.11
x1 = 0.8492 | 989.69 ± 0.11 | 977.56 ± 0.11 | 965.38 ± 0.11
x1 = 0.9002 | 992.92 ± 0.11 | 980.61 ± 0.11 | 968.28 ± 0.11

C[SiH]1O[SiH](C)O[SiH](C)O[SiH](C)O1 (stereo unspecified) [2,4,6,8-tetramethyl-1,3,5,7,2,4,6,8-tetroxatetrasilocane] + Cc1cccc(C)c1
mass density [kg/m3], [2]
Conditions | 288.15 K | 298.15 K | 308.15 K
x1 = 0.05 | 882 ± 0.13 | 873.13 ± 0.14 | 864.29 ± 0.14
x1 = 0.1001 | 894.34 ± 0.13 | 885.16 ± 0.13 | 876.06 ± 0.13
x1 = 0.15 | 905.42 ± 0.13 | 896 ± 0.13 | 886.6 ± 0.13
x1 = 0.1999 | 915.45 ± 0.12 | 905.8 ± 0.13 | 896.12 ± 0.13
x1 = 0.2498 | 924.55 ± 0.12 | 914.65 ± 0.12 | 904.73 ± 0.12
x1 = 0.2999 | 932.94 ± 0.12 | 922.8 ± 0.12 | 912.66 ± 0.12
x1 = 0.35 | 940.55 ± 0.12 | 930.19 ± 0.12 | 919.83 ± 0.12
x1 = 0.3995 | 947.41 ± 0.12 | 936.84 ± 0.12 | 926.34 ± 0.12
x1 = 0.4504 | 953.92 ± 0.12 | 943.11 ± 0.12 | 932.41 ± 0.12
x1 = 0.5 | 959.71 ± 0.11 | 948.69 ± 0.12 | 937.79 ± 0.12
x1 = 0.55 | 965.11 ± 0.11 | 953.9 ± 0.11 | 942.81 ± 0.12
x1 = 0.5996 | 970.04 ± 0.11 | 958.65 ± 0.11 | 947.34 ± 0.12
x1 = 0.65 | 974.69 ± 0.11 | 963.1 ± 0.11 | 951.62 ± 0.11
x1 = 0.6995 | 978.87 ± 0.11 | 967.14 ± 0.11 | 955.47 ± 0.11
x1 = 0.7495 | 982.81 ± 0.11 | 970.92 ± 0.11 | 959.07 ± 0.11
x1 = 0.7996 | 986.48 ± 0.11 | 974.42 ± 0.11 | 962.42 ± 0.11
x1 = 0.8498 | 989.84 ± 0.11 | 977.65 ± 0.11 | 965.47 ± 0.11
x1 = 0.8994 | 992.98 ± 0.11 | 980.64 ± 0.11 | 968.32 ± 0.11

C[SiH]1O[SiH](C)O[SiH](C)O[SiH](C)O1 (stereo unspecified) [2,4,6,8-tetramethyl-1,3,5,7,2,4,6,8-tetroxatetrasilocane] + Cc1ccccc1
mass density [kg/m3], [2]
Conditions | 288.15 K | 298.15 K | 308.15 K
x1 = 0.0499 | 886.6 ± 0.13 | 877.08 ± 0.14 | 867.53 ± 0.14
x1 = 0.0999 | 899.94 ± 0.13 | 890.19 ± 0.13 | 880.4 ± 0.13
x1 = 0.15 | 911.67 ± 0.13 | 901.66 ± 0.13 | 891.68 ± 0.13
x1 = 0.2 | 921.98 ± 0.12 | 911.75 ± 0.13 | 901.57 ± 0.13
x1 = 0.25 | 931.15 ± 0.12 | 920.71 ± 0.12 | 910.33 ± 0.12
x1 = 0.3 | 939.31 ± 0.12 | 928.7 ± 0.12 | 918.15 ± 0.12
x1 = 0.3502 | 946.71 ± 0.12 | 935.91 ± 0.12 | 925.11 ± 0.12
x1 = 0.4 | 953.26 ± 0.12 | 942.25 ± 0.12 | 931.31 ± 0.12
x1 = 0.4501 | 959.23 ± 0.11 | 948.05 ± 0.12 | 936.94 ± 0.12
x1 = 0.5004 | 964.63 ± 0.11 | 953.32 ± 0.11 | 942.01 ± 0.12
x1 = 0.5504 | 969.56 ± 0.11 | 958.11 ± 0.11 | 946.61 ± 0.12
x1 = 0.5998 | 973.98 ± 0.11 | 962.38 ± 0.11 | 950.74 ± 0.11
x1 = 0.6497 | 978.02 ± 0.11 | 966.26 ± 0.11 | 954.47 ± 0.11
x1 = 0.6994 | 981.74 ± 0.11 | 969.83 ± 0.11 | 957.9 ± 0.11
x1 = 0.7497 | 985.15 ± 0.11 | 973.12 ± 0.11 | 961.05 ± 0.11
x1 = 0.8 | 988.34 ± 0.11 | 976.19 ± 0.11 | 963.99 ± 0.11
x1 = 0.8494 | 991.18 ± 0.11 | 978.9 ± 0.11 | 966.61 ± 0.11
x1 = 0.8995 | 993.85 ± 0.11 | 981.45 ± 0.11 | 969.04 ± 0.11

C[SiH]1O[SiH](C)O[SiH](C)O[SiH](C)O1 (stereo unspecified) [2,4,6,8-tetramethyl-1,3,5,7,2,4,6,8-tetroxatetrasilocane] + Cc1ccccc1C
mass density [kg/m3], [2]
Conditions | 288.15 K | 298.15 K | 308.15 K
x1 = 0.0499 | 896.79 ± 0.13 | 888.17 ± 0.13 | 879.45 ± 0.13
x1 = 0.1 | 908.22 ± 0.13 | 899.3 ± 0.13 | 890.28 ± 0.13
x1 = 0.15 | 918.4 ± 0.12 | 909.22 ± 0.13 | 899.95 ± 0.13
x1 = 0.2 | 927.56 ± 0.12 | 918.11 ± 0.12 | 908.59 ± 0.12
x1 = 0.25 | 935.82 ± 0.12 | 926.11 ± 0.12 | 916.33 ± 0.12
x1 = 0.2998 | 943.2 ± 0.12 | 933.25 ± 0.12 | 923.21 ± 0.12
x1 = 0.3501 | 949.98 ± 0.12 | 939.8 ± 0.12 | 929.53 ± 0.12
x1 = 0.3998 | 956.06 ± 0.11 | 945.66 ± 0.12 | 935.16 ± 0.12
x1 = 0.4496 | 961.56 ± 0.11 | 950.95 ± 0.11 | 940.25 ± 0.12
x1 = 0.4998 | 966.65 ± 0.11 | 955.84 ± 0.11 | 944.92 ± 0.12
x1 = 0.5497 | 971.24 ± 0.11 | 960.22 ± 0.11 | 949.1 ± 0.11
x1 = 0.5997 | 975.45 ± 0.11 | 964.25 ± 0.11 | 952.96 ± 0.11
x1 = 0.6496 | 979.25 ± 0.11 | 967.88 ± 0.11 | 956.36 ± 0.11
x1 = 0.7001 | 982.82 ± 0.11 | 971.27 ± 0.11 | 959.58 ± 0.11
x1 = 0.7502 | 986.05 ± 0.11 | 974.32 ± 0.11 | 962.44 ± 0.11
x1 = 0.7998 | 988.96 ± 0.11 | 977.09 ± 0.11 | 965.04 ± 0.11
x1 = 0.848 | 991.61 ± 0.11 | 979.54 ± 0.11 | 967.33 ± 0.11
x1 = 0.9002 | 994.23 ± 0.11 | 982.02 ± 0.11 | 969.65 ± 0.11

C[SiH]1O[SiH](C)O[SiH](C)O[SiH](C)O1 (stereo unspecified) [2,4,6,8-tetramethyl-1,3,5,7,2,4,6,8-tetroxatetrasilocane] + c1ccccc1
mass density [kg/m3], [2]
Conditions | 288.15 K | 298.15 K | 308.15 K
x1 = 0.0497 | 898.88 ± 0.13 | 888.24 ± 0.13 | 877.55 ± 0.14
x1 = 0.0999 | 911.74 ± 0.13 | 900.99 ± 0.13 | 890.29 ± 0.13
x1 = 0.1499 | 922.78 ± 0.12 | 911.91 ± 0.13 | 901.26 ± 0.13
x1 = 0.1997 | 932.3 ± 0.12 | 921.32 ± 0.12 | 910.69 ± 0.12
x1 = 0.2501 | 940.72 ± 0.12 | 929.65 ± 0.12 | 918.93 ± 0.12
x1 = 0.3 | 948.04 ± 0.12 | 936.87 ± 0.12 | 926.1 ± 0.12
x1 = 0.35 | 954.56 ± 0.12 | 943.15 ± 0.12 | 932.28 ± 0.12
x1 = 0.3999 | 960.28 ± 0.11 | 948.81 ± 0.12 | 937.73 ± 0.12
x1 = 0.4498 | 965.46 ± 0.11 | 953.89 ± 0.11 | 942.65 ± 0.12
x1 = 0.4999 | 970.05 ± 0.11 | 958.4 ± 0.11 | 947.02 ± 0.11
x1 = 0.5498 | 974.22 ± 0.11 | 962.44 ± 0.11 | 950.92 ± 0.11
x1 = 0.5999 | 978.03 ± 0.11 | 966.16 ± 0.11 | 954.53 ± 0.11
x1 = 0.6486 | 981.36 ± 0.11 | 969.41 ± 0.11 | 957.65 ± 0.11
x1 = 0.7001 | 984.61 ± 0.11 | 972.54 ± 0.11 | 960.64 ± 0.11
x1 = 0.7495 | 987.43 ± 0.11 | 975.28 ± 0.11 | 963.27 ± 0.11
x1 = 0.8001 | 990.04 ± 0.11 | 977.8 ± 0.11 | 965.71 ± 0.11
x1 = 0.8499 | 992.42 ± 0.11 | 980.12 ± 0.11 | 967.91 ± 0.11
x1 = 0.8986 | 994.56 ± 0.11 | 982.19 ± 0.11 | 969.9 ± 0.11

c1ccccc1 [benzene]
Conditions | mass density [kg/m3]
[1] | 873.57 ± 0.13

Cc1ccccc1 [toluene]
Conditions | mass density [kg/m3]
[1] | 862.23 ± 0.13

Reference: the NIST ThermoML archive (doi:10.1021/je2009736)
